From the NIST ThermoML archive (doi:10.1021/je5007696)

Test: xn = mol fraction of the nth substance listed
Settings: 100 kPa, Liquid; for viscosity: Concentric cylinders viscometry; for mass density: Vibrating tube method

CCC(C)=O [butanone] + CCCCO
Settings | mass density [kg/m3] | viscosity [mPa·s]
288.15 K, x1 = 0.0997 | 813.126 | 2.293
288.15 K, x1 = 0.1999 | 812.877 | 1.645
288.15 K, x1 = 0.3003 | 812.583 | 1.257
288.15 K, x1 = 0.4008 | 812.253 | 1.009
288.15 K, x1 = 0.5003 | 811.906 | 0.8332
288.15 K, x1 = 0.6001 | 811.555 | 0.7013
288.15 K, x1 = 0.6992 | 811.203 | 0.5975
288.15 K, x1 = 0.7991 | 810.843 | 0.5248
288.15 K, x1 = 0.899 | 810.477 | 0.4708
288.15 K, x1 = 1 | 810.133 | 0.4306
293.15 K, x1 = 0.0997 | 809.157 | 2.034
293.15 K, x1 = 0.1999 | 808.747 | 1.483
293.15 K, x1 = 0.3003 | 808.3 | 1.147
293.15 K, x1 = 0.4008 | 807.824 | 0.9297
293.15 K, x1 = 0.5003 | 807.337 | 0.7756
293.15 K, x1 = 0.6001 | 806.848 | 0.6603
293.15 K, x1 = 0.6992 | 806.362 | 0.5696
293.15 K, x1 = 0.7991 | 805.875 | 0.4997
293.15 K, x1 = 0.899 | 805.39 | 0.4505
293.15 K, x1 = 1 | 804.926 | 0.4136
298.15 K, x1 = 0.0997 | 805.165 | 1.814
298.15 K, x1 = 0.1999 | 804.592 | 1.343
298.15 K, x1 = 0.3003 | 803.992 | 1.051
298.15 K, x1 = 0.4008 | 803.369 | 0.8588
298.15 K, x1 = 0.5003 | 802.741 | 0.7227
298.15 K, x1 = 0.6001 | 802.114 | 0.6178
298.15 K, x1 = 0.6992 | 801.494 | 0.5358
298.15 K, x1 = 0.7991 | 800.878 | 0.475
298.15 K, x1 = 0.899 | 800.271 | 0.4313
298.15 K, x1 = 1 | 799.695 | 0.3962
303.15 K, x1 = 0.0997 | 801.147 | 1.626
303.15 K, x1 = 0.1999 | 800.407 | 1.221
303.15 K, x1 = 0.3003 | 799.653 | 0.9652
303.15 K, x1 = 0.4008 | 798.884 | 0.7945
303.15 K, x1 = 0.5003 | 798.115 | 0.6753
303.15 K, x1 = 0.6001 | 797.349 | 0.5823
303.15 K, x1 = 0.6992 | 796.597 | 0.5093
303.15 K, x1 = 0.7991 | 795.852 | 0.4521
303.15 K, x1 = 0.899 | 795.126 | 0.4114
303.15 K, x1 = 1 | 794.435 | 0.3793
308.15 K, x1 = 0.0997 | 797.097 | 1.465
308.15 K, x1 = 0.1999 | 796.195 | 1.115
308.15 K, x1 = 0.3003 | 795.288 | 0.8886
308.15 K, x1 = 0.4008 | 794.369 | 0.7364
308.15 K, x1 = 0.5003 | 793.457 | 0.6314
308.15 K, x1 = 0.6001 | 792.551 | 0.5453
308.15 K, x1 = 0.6992 | 791.666 | 0.48
308.15 K, x1 = 0.7991 | 790.793 | 0.4294
308.15 K, x1 = 0.899 | 789.946 | 0.3918
308.15 K, x1 = 1 | 789.142 | 0.3626
313.15 K, x1 = 0.0997 | 793.009 | 1.327
313.15 K, x1 = 0.1999 | 791.945 | 1.022
313.15 K, x1 = 0.3003 | 790.885 | 0.8197
313.15 K, x1 = 0.4008 | 789.819 | 0.6843
313.15 K, x1 = 0.5003 | 788.763 | 0.5907
313.15 K, x1 = 0.6001 | 787.719 | 0.5143
313.15 K, x1 = 0.6992 | 786.701 | 0.4552
313.15 K, x1 = 0.7991 | 785.7 | 0.4073
313.15 K, x1 = 0.899 | 784.731 | 0.3723
313.15 K, x1 = 1 | 783.814 | 0.3461
318.15 K, x1 = 0.0997 | 788.88 | 1.206
318.15 K, x1 = 0.1999 | 787.652 | 0.939
318.15 K, x1 = 0.3003 | 786.442 | 0.7575
318.15 K, x1 = 0.4008 | 785.228 | 0.637
318.15 K, x1 = 0.5003 | 784.03 | 0.5532
318.15 K, x1 = 0.6001 | 782.849 | 0.485
318.15 K, x1 = 0.6992 | 781.696 | 0.43
318.15 K, x1 = 0.7991 | 780.568 | 0.386
318.15 K, x1 = 0.899 | 779.478 | 0.3532
318.15 K, x1 = 1 | 778.451 | 0.3303
323.15 K, x1 = 0.0997 | 784.708 | 1.096
323.15 K, x1 = 0.1999 | 783.318 | 0.8726
323.15 K, x1 = 0.3003 | 781.954 | 0.7156
323.15 K, x1 = 0.4008 | 780.593 | 0.6041
323.15 K, x1 = 0.5003 | 779.253 | 0.5225
323.15 K, x1 = 0.6001 | 777.934 | 0.4597
323.15 K, x1 = 0.6992 | 776.652 | 0.4101
323.15 K, x1 = 0.7991 | 775.398 | 0.369
323.15 K, x1 = 0.899 | 774.188 | 0.3356
323.15 K, x1 = 1 | 773.047 | 0.3168

COC(=O)CCCCC(=O)OC [dimethyl 1,6-hexanedioate] + CCC(C)=O
viscosity [mPa·s]
Settings | x1 = 0.1002 | x1 = 0.2002 | x1 = 0.3002 | x1 = 0.4004 | x1 = 0.5001 | x1 = 0.5999 | x1 = 0.6998 | x1 = 0.7994 | x1 = 0.8997 | x1 = 1
288.15 K | 0.5707 | 0.7368 | 0.9419 | 1.183 | 1.467 | 1.802 | 2.191 | 2.636 | 3.16 | 3.751
293.15 K | 0.5434 | 0.6952 | 0.8803 | 1.096 | 1.347 | 1.64 | 1.974 | 2.353 | 2.794 | 3.289
298.15 K | 0.5166 | 0.6563 | 0.824 | 1.019 | 1.242 | 1.498 | 1.79 | 2.12 | 2.491 | 2.91
303.15 K | 0.4912 | 0.6199 | 0.7742 | 0.9509 | 1.15 | 1.38 | 1.635 | 1.921 | 2.241 | 2.604
308.15 K | 0.4667 | 0.5865 | 0.7277 | 0.8892 | 1.069 | 1.274 | 1.5 | 1.75 | 2.033 | 2.342
313.15 K | 0.4425 | 0.555 | 0.6853 | 0.8331 | 0.9961 | 1.181 | 1.382 | 1.604 | 1.851 | 2.121
318.15 K | 0.4199 | 0.525 | 0.6465 | 0.7827 | 0.9324 | 1.098 | 1.279 | 1.476 | 1.695 | 1.933
323.15 K | 0.4037 | 0.502 | 0.6165 | 0.7425 | 0.883 | 1.036 | 1.202 | 1.381 | 1.577 | 1.79
